Measurements from EP1095657A2, “Compositions for the regulation of cytokine activity” (priority 1992, dated 1994).

Tests used:
[1] = system: C57BL/6 skin grafts on BALB/c mice; experiment: Skin allograft rejection in mice; assay type: in vivo
Procedure: The effect of H-9392 was also tested in skin graft rejection experiments in mice. In particular, skin grafts from C57BL/6 donor mice (H-2^b) were applied to recipient BALB/c mice (H-2^d) according to the method of Baharav, E. et al. J. Immunol. Methods (1986) 90:143-144. The number of days to rejection was measured by the sloughing of the graft. The number of days to rejection was determined for a control group (injected with saline only, 0.1 ml), and test groups that received 3 ng or 300 ng of H-9392 by subcutaneous injection one day before grafting and weekly thereafter. The results, which are graphically represented in FIGS. 40 and 40A, reveal that the 3 ng/mouse dose delayed the level of skin graft rejection at 50% by 5 days!

[2] = system: adjuvant arthritis in Lewis rats; experiment: Adjuvant arthritis (AA) in rats; assay type: in vivo

## O=C(O)C1=C[C@H](O)[C@@H](OS(=O)(=O)O)[C@H](O[C@H]2[C@H](O)[C@@H](NS(=O)(=O)O)C(O)O[C@@H]2CO)O1 (stereo partly drawn) [H-9392, 2-O-sulfate-4-deoxy-4-en-iduronic acid-(α-1,4)-2-deoxy-2-N-sulfateglucosamine]
[1]; 3 ng/mouse s.c. one day before grafting and weekly thereafter
  delay of the level of skin graft rejection at 50%: 5 days
[1]; 300 ng/mouse s.c. one day before grafting and weekly thereafter
  difference at 50% rejection relative to control, in words: failed to produce a significant difference
[2]; 120 ng/rat or 0.6 ng/gm rat s.c. weekly from 1 day before induction, 24 days after induction
  suppression of the inflammation of AA: up to 90%
[2]; weekly or daily, beginning at day 0 or at day 12
  effect on AA, in words: positive suppression of the severity of AA in all cases
[2]; weekly s.c. from day 12 to day 26, 120 ng disaccharide or 100 µg dexamethasone phosphate per rat
  effect on AA at 30 days post-induction, in words: almost complete suppression
